The values below come from patent US11938113B2, “Epigallocathechin gallate solution” (ASSISTANCE PUBLIQUE—HOPITAUX DE PARIS, priority 2017, dated 2024).

Where “and” joins values, the source holds several entries; their conditions need not be identical. Equal values may be shown once. Read-outs that look alike come from different tables or passages of the source. Where only a bound is given, the exact number is not on record here.

The conditions of data set [1]: at normal condition, in water; cited from earlier work.
For data set [2] the following is noted: after 1-h ultra violet irradiation; cited from earlier work.
Data set [3] is described as follows: Stress stability testing (thermal gradient 25 to 135° C., HPLC of residue). Type of data set: physicochemical. As to conditions: heating 25 to 135° C. at 5° C. per min.
Description: Both solutions were subjected to progressive heating ranging from 25 to 135° C. at a rate of 5° C. per minute. At end of heating, the residues formed from each solution are illustrated in FIG. 2A and are analyzed by high performance liquid chromatography.
1 mL of the reference standard suspension and a formulation of the invention disclosed Table 1 before were subjected to a thermal gradient program ranging from 25 to 135° C. at a rate of 5° C. per min. At the end of this exposure, part of each of the residues formed was deposited on a glass slide and the remaining part analyzed by high performance liquid chromatography.
Data set [4] can be described thus: Solubility of EGCG in sucrose solution versus EGCG alone in water. The data set is classed as physicochemical. As to conditions: after 4 hours of dissolution.
Excerpt: The solubility of EGCG in a solution containing 10% by weight of sucrose is compared to that of EGCG alone in water.

On to `O=C(O[C@@H]1Cc2c(O)cc(O)cc2O[C@@H]1c1cc(O)c(O)c(O)c1)c1cc(O)c(O)c(O)c1` [EGCG, Epigallocatechin gallate], for which the “solubility of EGCG” value was 4.6 g/L and 10 mM in data set [1]; at most 5000 µg/mL in data set [4]. Besides, the “decomposition of EGCG” value in data set [2] is 70%. In data set [3], the “appearance of residue at the end of heating” value was “black”. Moreover, in data set [3] (HPLC), the “chromatographic analysis of residue (EGCG remaining)” value is listed as “practically no more EGCG”.
